ChEMBL document CHEMBL2069241, “Isosteric replacements for benzothiazoles and optimisation to potent Cathepsin K inhibitors free from hERG channel inhibition” (Bioorg Med Chem Lett, 2012)
In brackets after ≈: the same amount, converted by molar mass.

Columns and labels:
physchem [1] = details: buffer, pH 7.4
physchem [2] = details: buffer, pH 7.4; remark: listed apart in the source
[3] = Volume of distribution at steady state in Han Wistar rat at 1 mg/kg, iv and 2 mg/kg, po; type: ADME, organism-based; details: in vivo, read-out: Vdss
[4] = Oral bioavailability in Han Wistar rat at 2 mg/kg; type: ADME, organism-based; details: in vivo
[5] = Volume of distribution at steady state in beagle dog at 1 mg/kg, iv and 1 mg/kg, po; type: ADME, organism-based, Canis lupus familiaris; details: in vivo, read-out: Vdss
[6] = Oral bioavailability in beagle dog at 1 mg/kg; type: ADME, organism-based, Canis lupus familiaris; details: in vivo

N#CC1(NC(=O)[C@@H]2CCCC[C@H]2C(=O)N2CCN(c3nc(-c4ccccc4)cs3)CC2)CC1
logD (physchem [1]): 3.5 | solubility (physchem [2]): 96 µM (≈ 44.5 µg/mL)

N#CC1(NC(=O)[C@@H]2CCCC[C@H]2C(=O)N2CCN(c3nc4ccccc4s3)CC2)CC1
Vd [3]: 1.5 L/kg | bioavailability [4]: 20% | Vd [5]: 1.5 L/kg | bioavailability [6]: 78% | logD (physchem [1]): 2.6 | solubility (physchem [2]): 1000 µM (≈ 438 µg/mL)

N#CC1(NC(=O)[C@@H]2CCCC[C@H]2C(=O)N2CCN(c3nccs3)CC2)CC1
logD (physchem [1]): 1.3 | solubility (physchem [2]): 3100 µM (≈ 1200 µg/mL)

CC(C)(C)c1csc(N2CCN(C(=O)[C@@H]3CCCC[C@H]3C(=O)NC3(C#N)CC3)CC2)n1
logD (physchem [1]): 3.3 | solubility (physchem [2]): 280 µM (≈ 124 µg/mL)

N#CC1(NC(=O)[C@@H]2CCCC[C@H]2C(=O)N2CCN(c3nc(C(F)(F)F)cs3)CC2)CC1
logD (physchem [1]): 2.4

Cc1sc(N2CCN(C(=O)[C@@H]3CCCC[C@H]3C(=O)NC3(C#N)CC3)CC2)nc1C(F)(F)F
logD (physchem [1]): 2.9

N#CC1(NC(=O)[C@@H]2CCCC[C@H]2C(=O)N2CCN(c3nc(C(F)(F)F)c(Cl)s3)CC2)CC1
logD (physchem [1]): 3.4

N#Cc1cnc(N2CCN(C(=O)[C@@H]3CCCC[C@H]3C(=O)NC3(C#N)CC3)CC2)s1
logD (physchem [1]): 1.2

CS(=O)(=O)c1ccc2nc(N3CCN(C(=O)[C@@H]4CCCC[C@H]4C(=O)NC4(C#N)CC4)CC3)sc2c1
Vd [3]: 0.54 L/kg | bioavailability [4]: 3.3% | logD (physchem [1]): 1.5

CC(C)(C#N)c1cnc(N2CCN(C(=O)[C@@H]3CCCC[C@H]3C(=O)NC3(C#N)CC3)CC2)s1
logD (physchem [1]): 1.9 | solubility (physchem [2]): 2600 µM (≈ 1180 µg/mL)

N#CC1(NC(=O)[C@@H]2CCCC[C@H]2C(=O)N2CCN(c3nc4ccncc4s3)CC2)CC1
logD (physchem [1]): 1.6 | solubility (physchem [2]): > 1600 µM

N#CC1(NC(=O)[C@@H]2CCCC[C@H]2C(=O)N2CCN(c3nc4cnccc4s3)CC2)CC1
Vd [3]: 0.8 L/kg | bioavailability [4]: 17% | logD (physchem [1]): 1.7 | solubility (physchem [2]): > 1500 µM

N#CC1(NC(=O)[C@@H]2CCCC[C@H]2C(=O)N2CCN(c3nc4ncccc4s3)CC2)CC1
logD (physchem [1]): 1.4 | solubility (physchem [2]): > 2000 µM

N#CC1(NC(=O)[C@@H]2CCCC[C@H]2C(=O)N2CCN(c3nc4c(s3)CCC4)CC2)CC1
logD (physchem [1]): > 3

N#CC1(NC(=O)[C@@H]2CCCC[C@H]2C(=O)N2CCN(c3nc4c(s3)COCC4)CC2)CC1
Vd [3]: 1.3 L/kg | bioavailability [4]: 33% | logD (physchem [1]): 1.4 | solubility (physchem [2]): > 3600 µM

CC1(C)COCc2sc(N3CCN(C(=O)[C@@H]4CCCC[C@H]4C(=O)NC4(C#N)CC4)CC3)nc21
logD (physchem [1]): 2.4 | solubility (physchem [2]): 1700 µM (≈ 802 µg/mL)
